Source: US10226041B2, “Compositions and methods for improving the quality of processed sperm” (Inguran, LLC, priority 2011, dated 2019)
Several values for one entry are separate records, joined by “and”; a condition that tells them apart may be missing. Equal entries are not always repeated.

Assays:
sex-sorted sperm = experiment: DNA fragmentation of sex-sorted sperm (Halomax for animals kit); format: cell-based, cattle
Experimental: The levels of DNA fragmentation were also screened using a DNA fragmentation ‘Halomax for animals’ kit (Halotech DNA, sl, Madrid, Spain) to determine if there were any advantageous effects of using the antioxidants during the staining and processing of sex-sorted sperm. Two different breeds of cattle, Jersey and Holstein, were examined using two different concentrations of antioxidant, 0.25 mg/ml and 0.5 mg/ml of vitamin B12 with the 3 step protocol adding the same concentration of OSR during cell staining, in the collection catch fluid and prior to cryopreservation. One of the bulls was used to evaluate the effect of addition or omission of OSR at one or more of the sperm sorting steps. Motility and the level of DNA fragmentation were both recorded.

[1] = system: slaughterhouse oocytes fertilized with sex sorted sperm; experiment: IVF: development of eggs fertilized with OSR treated sex sorted sperm; format: cell-based, bovine; settings: 3 step
Experimental: 1. Oocyte Collection. Collect slaughterhouse oocytes, wash 1× with about 3 mL Hepes washing media and with 1× with TCM-199 (Invitrogen, Carlsbad, Calif.)+10% Fetal Bovine Serum (FBS). Culture in maturation media for 22 hrs in a CO2 incubator at 38.5° C. In one embodiment, the maturation media contains TCM-199, FBS, pyruvate, chorionic gonadotropin (e.g., Chorulon (Intervet, Summit N.J.)), follicle stimulating hormone (FSH) (e.g., Folltropin (Bioniche, Belleville, Canada)), estradiol, and at least one antibiotic. In a further embodiment, Amikacin (Sigma-Aldrich, St. Louis, Mo.) can be used as the antibiotic. In another embodiment, the maturation media may also comprise luteinizing hormone.
2. In Vitro Fertilization. Trim away cumulus cells from matured oocytes. Transfer them to a fertilization dish and return to the CO2 incubator. Thaw frozen semen straws using standard procedures, centrifuge in […], of Pure Sperm gradient (Nidacon, Molndal, Sweden), or a percoll or similar gradient at 2500 RPM for 10 minutes to remove egg components, glycerol and other debris. Remove supernatant, leaving a loose pellet of live sperm. Combine pellets using a small amount of fertilization media and repellet at 1500 RPM for 3 minutes. Carefully remove supernatant. Then gently mix the pellet. After determining the desired insemination dose, inseminate the oocytes by adding sperm to the pellet, then culture in a dish and return to the CO2 incubator for about 18-22 hours.
3. In Vitro Culture. Remove presumptive zygotes from the fertilization dish and transfer into a sterile 1.5 mL eppendorf tube. Allow zygotes to form a loose pellet and remove excess media to form a 1:1 ratio of pellet and solution. Rinse the eppendorf tube with TCM-199, place contents into a dish and wash with BSA media. Then culture presumptive zygotes (discard disfigured oocytes, as well as oocytes with yellow colored cytoplasm or vacuolated cytoplasm) in a dual gas incubator (5% CO2, 5% O2) at 38.5° C. for about 48 hours.
4. Co-Culture. Transfer cleaved zygotes to co-culture dishes comprising the cumulus cells from the mature oocytes and FBS media topped with mineral oil, and incubate in a CO2 incubator at 38.5° C. until needed.
An experiment was designed to test the effect of OSR treated sperm cells on the development of eggs fertilized with those sperm cells. In this experiment, bull semen from two bulls was sex sorted with flow cytometry, with vitamin B12 present at equal concentrations in the media used to stain the sperm cells, in the catch fluid of the collecting vessel and in the cryoprotectant extender prior to freezing the sex sorted sample (3 step). For each bull, three different concentrations of vitamin B12 were tested: 0.05 mg/ml, 0.15 mg/ml and 0.25 mg/ml. The control samples were not treated with vitamin B12.
Slaughterhouse oocytes were collected and washed 1× with about 3 mL Hepes washing media and with 1× with TCM-199+10% FBS. The oocytes were then cultured in maturation media for 22 hrs in a CO2 incubator at 38.5° C. Cumulus cells were trimmed away from matured oocytes, transferred to a fertilization dish, and returned to the CO2 incubator.
Frozen semen straws were thawed using standard procedures and centrifuged in […], of Pure Sperm gradient at 2500 RPM for 10 minutes in order to remove egg, glycerol and other debris. The supernatant was removed, leaving a loose pellet of live sperm. Pellets were combined using a small amount of fertilization media and repelleted at 1500 RPM for 3 minutes. The supernatant was then carefully removed and the pellet gently mixed. After determining the desired insemination dose, the matured oocytes were then inseminated by adding sperm to the pellet, cultured in a dish and returned to the CO2 incubator for about 18-22 hours.
Presumptive zygotes were removed from the fertilization dish and transferred into a sterile 1.5 ml eppendorf tube. […]

[2] = 0.05 mg/ml, Table 4 replicates, Bulls A, B
[3] = 0.5 mg/ml, Table 5 Total/Avg per bull (A Holstein, B Jersey), Holstein bull
[4] = 0.5 mg/ml, Table 5 Total/Avg per bull (A Holstein, B Jersey), Jersey bull
[5] = 0.5 mg/ml, Table 5 replicates, Bull A (Holstein), Bull B (Jersey), Holstein bull
[6] = 0.5 mg/ml, Table 5 replicates, Bull A (Holstein), Bull B (Jersey), Jersey bull

In the case of vitamin B12, the “% DNA Fragmentation” value (sex-sorted sperm; 0 hr, 1 step-stain (+−−), Bull C (Jersey), Trial 1) is reported as 0.7%, the “% DNA Fragmentation” value (sex-sorted sperm; 0 hr, 1 step-stain (+−−), Bull C (Jersey), Trial 2) is reported as 0.7% and the “% DNA Fragmentation” value (sex-sorted sperm; 0 hr, 2 step-stain (++−), Bull C (Jersey), Trial 1) is reported as 0.3%. For the same substance, the “% DNA Fragmentation” value (sex-sorted sperm; 0 hr, 2 step-stain (++−), Bull C (Jersey), Trial 2) was 0.3%, the “% DNA Fragmentation” value (sex-sorted sperm; 0 hr, 3 step (+++), Bull C (Jersey), Trial 1) was 0% and the “% DNA Fragmentation” value (sex-sorted sperm; 0 hr, 3 step (+++), Bull C (Jersey), Trial 2) was 0.3%. The “% DNA Fragmentation” value (sex-sorted sperm; 0 hr, vitamin B12 0.5 mg/ml, 3 step, Bull A (Jersey)) was 0.3%, the “% DNA Fragmentation” value (sex-sorted sperm; 0 hr, vitamin B12 0.5 mg/ml, 3 step, Bull B (Holstein)) was 0.3% and the “% DNA Fragmentation” value (sex-sorted sperm; 24 hr, 1 step-stain (+−−), Bull C (Jersey), Trial 1) was 1%. For the same substance, the “% DNA Fragmentation” value (sex-sorted sperm; 24 hr, 1 step-stain (+−−), Bull C (Jersey), Trial 2) was 1%, the “% DNA Fragmentation” value (sex-sorted sperm; 24 hr, 2 step-stain (++−), Bull C (Jersey), Trial 1) was 1% and the “% DNA Fragmentation” value (sex-sorted sperm; 24 hr, 2 step-stain (++−), Bull C (Jersey), Trial 2) was 0.7%. The “% DNA Fragmentation” value (sex-sorted sperm; 24 hr, 3 step (+++), Bull C (Jersey), Trial 1) was 0.3%, the “% DNA Fragmentation” value (sex-sorted sperm; 24 hr, 3 step (+++), Bull C (Jersey), Trial 2) was 0.3% and the “% DNA Fragmentation” value (sex-sorted sperm; 24 hr, vitamin B12 0.5 mg/ml, 3 step, Bull A (Jersey)) was 0.7%. For the same substance, the “% DNA Fragmentation” value (sex-sorted sperm; 24 hr, vitamin B12 0.5 mg/ml, 3 step, Bull B (Holstein)) was 0.3%, the “% DNA Fragmentation” value (sex-sorted sperm; 48 hr, 1 step-stain (+−−), Bull C (Jersey), Trial 1) was 1.3% and the “% DNA Fragmentation” value (sex-sorted sperm; 48 hr, 1 step-stain (+−−), Bull C (Jersey), Trial 2) was 1%. The “% DNA Fragmentation” value (sex-sorted sperm; 48 hr, 2 step-stain (++−), Bull C (Jersey), Trial 1) was 1%, the “% DNA Fragmentation” value (sex-sorted sperm; 48 hr, 2 step-stain (++−), Bull C (Jersey), Trial 2) was 0.7% and the “% DNA Fragmentation” value (sex-sorted sperm; 48 hr, 3 step (+++), Bull C (Jersey), Trial 1) was 0.3%. For the same substance, the “% DNA Fragmentation” value (sex-sorted sperm; 48 hr, 3 step (+++), Bull C (Jersey), Trial 2) was 0.7%, the “% DNA Fragmentation” value (sex-sorted sperm; 48 hr, vitamin B12 0.5 mg/ml, 3 step, Bull A (Jersey)) was 1.3% and the “% DNA Fragmentation” value (sex-sorted sperm; 48 hr, vitamin B12 0.5 mg/ml, 3 step, Bull B (Holstein)) was 0.7%. The “4-2C, Total/Avg” value ([1]; 0.05 mg/ml, Table 4 Total/Avg per bull (A, B)) was 66 and 63, the “4-2C (zygotes at 2 cell to 4 cell transition 48 hours after IVF)” value [1, 2] was 20 (2×) and 26 and 18 and 23 and 22 and the “8C % (zygotes having 8 cells 48 hours after IVF)” value [1, 2] was 3.4% and 9.5% and 11.7% and 44.4% and 29.3% and 29.0%. For the same substance, the “8C (zygotes with 8 cells 48 hours after IVF)” value [1, 2] was 3 and 9 and 11 and 40 and 27 (2×), the “% Clv (percent cleaved 48 hours after IVF)” value [1, 2] was 26.4% and 36.8% and 33.0% and 64.4% and 54.3% and 52.7% and the “Blast % (cultured zygotes resulting in blastocyst formation)” value (“Blast %” for short) [1, 2] was 1.1% and 2.1% and 4.3% and 21.1% and 16.3% and 22.6%. For the same substance, the “C1 (expanded, hatching and hatched blastocysts 7 days after IVF)” value [1, 2] was 0 (2×) and 1 and 2 and 4 and 5, the “C1− (blastocysts 7 days after IVF)” value [1, 2] was 0 (2×) and 3 (2×) and 4 and 2 and the “C2 (early blastocysts and compact morulas 7 days after IVF)” value [1, 2] was 1 (3×) and 13 (2×) and 9. For the same substance, the “Hatch # (embryos shedding the zona, 8.5 days after IVF)” value [1, 2] was 0 and 1 (2×) and 9 and 7 and 8, the “Hatch % (embryos that shed the zona)” value [1, 2] was 0.0% and 50.0% and 25.0% and 47.4% and 46.7% and 38.1% and the “Total Embs (total number of blastocysts)” value [1, 2] was 1 and 2 and 4 and 19 and 15 and 21. The “4-2C, Total/Avg” value [1, 3] was 72, the “8C %, Total/Avg” value [1, 3] was 35.1% and the “8C, Total/Avg” value [1, 3] was 99. For the same substance, the “C1−, Total/Avg” value [1, 3] was 17, the “C2, Total/Avg” value [1, 3] was 18 and the “Hatch #, Total/Avg” value [1, 3] was 16. The “Total Embs, Total/Avg” value [1, 3] was 41, the “4-2C, Total/Avg” value [1, 4] was 86 and the “8C %, Total/Avg” value [1, 4] was 35.4%. The “8C, Total/Avg” value [1, 4] was 104, the “C1−, Total/Avg” value [1, 4] was 22 and the “C2, Total/Avg” value [1, 4] was 13. The “Hatch #, Total/Avg” value [1, 4] was 20, the “Total Embs, Total/Avg” value [1, 4] was 52 and the “4-2C (zygotes at 2 cell to 4 cell transition 48 hours after IVF)” value [1, 5] was 25 and 29 and 18. The “8C % (zygotes having 8 cells 48 hours after IVF)” value [1, 5] was 36.2% and 31.6% and 37.6%, the “8C (zygotes with 8 cells 48 hours after IVF)” value [1, 5] was 34 and 30 and 35 and the “% Clv (percent cleaved 48 hours after IVF)” value [1, 5] was 62.8% and 62.1% and 57.0%. The “Blast %” value [1, 5] was 6.4% and 15.8% and 21.5%, the “C1 (expanded, hatching and hatched blastocysts 7 days after IVF)” value [1, 5] was 0 and 1 and 5 and the “C1− (blastocysts 7 days after IVF)” value [1, 5] was 3 and 7 (2×). For the same substance, the “C2 (early blastocysts and compact morulas 7 days after IVF)” value [1, 5] was 3 and 7 and 8, the “Hatch # (embryos shedding the zona, 8.5 days after IVF)” value [1, 5] was 1 and 4 and 11 and the “Hatch % (embryos that shed the zona)” value [1, 5] was 16.7% and 26.7% and 55.0%. For the same substance, the “Total Embs (total number of blastocysts)” value [1, 5] was 6 and 15 and 20, the “4-2C (zygotes at 2 cell to 4 cell transition 48 hours after IVF)” value [1, 6] was 40 and 31 and 15 and the “8C % (zygotes having 8 cells 48 hours after IVF)” value [1, 6] was 34.0% and 25.3% and 46.5%. For the same substance, the “8C (zygotes with 8 cells 48 hours after IVF)” value [1, 6] was 34 and 24 and 46, the “% Clv (percent cleaved 48 hours after IVF)” value [1, 6] was 74.0% and 57.9% and 61.6% and the “Blast %” value [1, 6] was 11.0% and 24.2% and 18.2%. The “C1 (expanded, hatching and hatched blastocysts 7 days after IVF)” value [1, 6] was 4 and 5 and 8, the “C1− (blastocysts 7 days after IVF)” value [1, 6] was 6 and 11 and 5 and the “C2 (early blastocysts and compact morulas 7 days after IVF)” value [1, 6] was 1 and 7 and 5. The “Hatch # (embryos shedding the zona, 8.5 days after IVF)” value [1, 6] was 5 and 6 and 9, the “Hatch % (embryos that shed the zona)” value [1, 6] was 45.5% and 26.1% and 50.0% and the “Total Embs (total number of blastocysts)” value [1, 6] was 11 and 23 and 18.
